These results are taken from ChEMBL document CHEMBL4680185, “Discovery of novel cyclin-dependent kinase (CDK) and histone deacetylase (HDAC) dual inhibitors with potent in vitro and in vivo anticancer activity” (Eur J Med Chem, 2020).

One data set deals with SMMC-7721. In words: cells. In kind it is functional, cell-based. The settings on record: Homo sapiens, SMMC-7721, 72 h.
The next data set addresses CDK6/cyclin D3 (Homo sapiens, UniProt Q00534). In words: Inhibition of recombinant human full length CDK6/cyclin D3 incubated for 10 mins by ADP-Glo reagent assay. The format is protein-complex assay. In general terms: ADP-Glo first removes unused ATP, then detects ADP through luciferase.
Another data set deals with T1, Histone deacetylase 8 (Homo sapiens, UniProt Q9BY41).
T1 sequence (Q9BY41 whole entry): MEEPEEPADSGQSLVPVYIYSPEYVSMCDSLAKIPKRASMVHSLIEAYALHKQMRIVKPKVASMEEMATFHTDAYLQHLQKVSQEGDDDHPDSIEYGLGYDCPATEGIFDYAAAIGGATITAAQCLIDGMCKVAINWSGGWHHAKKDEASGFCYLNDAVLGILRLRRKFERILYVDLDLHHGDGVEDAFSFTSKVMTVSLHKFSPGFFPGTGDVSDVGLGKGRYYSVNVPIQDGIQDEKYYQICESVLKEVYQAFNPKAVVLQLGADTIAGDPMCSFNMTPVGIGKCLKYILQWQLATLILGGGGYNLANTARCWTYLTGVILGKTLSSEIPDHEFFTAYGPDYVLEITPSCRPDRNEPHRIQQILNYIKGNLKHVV
Description: Inhibition of human recombinant HDAC8 preincubated for 10 mins followed by substrate addition measured after 30 mins by fluorescent plate reader analysis.

The subject of data set [1] is HeLa. Description: cells. The format is functional, cell-based. The settings on record: Homo sapiens, 72 h.
Description: Antiproliferative activity against human Hela cells assessed as inhibition of cell growth incubated for 72 hrs by CCK-8 assay
Data set [2] relates to HeLa. In words: Induction of apoptosis in human HeLa cells assessed as number of apoptotic cells at 0.5 to 2 uM incubated for 48 hrs by annexin V-FITC/PI based flow cytometric analysis. In kind it is functional, cell-based. The settings on record: dose 0.5-2 µM.
Data set [3] relates to A-375. Description: Cell cycle arrest in human A375 cells assessed as increase in number of cells at G2/M phase at 0.5 to 2 uM incubated for 24 hrs by propidium iodide staining based flow cytometry. In kind it is functional. The following applies: dose 0.5-2 µM.
The subject of data set [4] is HCT-116. Description: cells. In kind it is functional, cell-based. The following applies: Homo sapiens, HCT-116, 72 h.
Description: Antiproliferative activity against human HCT116 cells assessed as inhibition of cell growth incubated for 72 hrs by CCK-8 assay
For data set [5], the system named is NCI-H460. Description: cells. In kind it is functional. The following applies: Homo sapiens, time 72 hrs, read-out: GI.
Data set [6] can be described thus: MRT (0 to infinity) in ICR mouse at 20 mg/kg, ip by LC-MS/MS analysis. In kind it is ADME, organism-based. The settings on record: in vivo.
Data set [7] can be described thus: Tmax in ICR mouse at 20 mg/kg, ip by LC-MS/MS analysis. In kind it is ADME, organism-based. The following applies: in vivo.
Data set [8] concerns the target Cyclin-dependent kinase 7/ cyclin H (Homo sapiens, UniProt P50613). Description: Inhibition of recombinant human full length CDK7/cyclin H1 expressed in Sf9 cells incubated for 10 mins by ADP-Glo reagent assay.
Data set [9] concerns the target Histone deacetylase (Homo sapiens) (UniProt Q13547+O15379+Q9UBN7+Q92769+Q9UQL6+Q8WUI4+Q9BY41+Q96DB2+P56524+Q9UKV0+Q969S8). In words: Inhibition of HDAC in human A375 cells assessed as increase in acetylation of H3K9 at 1 uM measured after 12 hr by DAPI staining based immunofluorescence analysis. In kind it is cell-based. The following applies: A-375.
Data set [10] relates to A-375. Description: Induction of apoptosis in human A375 cells assessed as number of apoptotic cells at 2 uM incubated for 48 hrs by annexin V-FITC/PI based flow cytometric analysis relative to control. In kind it is functional. A general note: In flow cytometry, cells or beads pass a laser one at a time.
Data set [11] relates to NCI-H460. Description: Induction of apoptosis in human H460 cells assessed as number of apoptotic cells at 0.5 to 2 uM incubated for 48 hrs by annexin V-FITC/PI based flow cytometric analysis. In kind it is functional, cell-based. The settings on record: dose 0.5-2 µM.
Data set [12] deals with HCT-116. Description: Cell cycle arrest in human HCT116 cells assessed as increase in number of cells at G2/M phase at 0.5 to 2 uM incubated for 24 hrs by propidium iodide staining based flow cytometry. The format is functional. The settings on record: dose 0.5-2 µM.
Data set [13] deals with HCT-116. In words: Antitumor activity against human HCT116 cells xenografted in BALB/C nude mouse assessed reduction in tumor growth at 12.5 mg/kg, ip once daily for 21 days relative to control. The format is functional. The settings on record: HCT-116, ip, 504 h, time 21 day, read-out: TGI.
The test system of data set [14] is HCT-116. In words: Antitumor activity against human HCT116 cells xenografted in BALB/C nude mouse assessed reduction in tumor growth at 25 mg/kg, ip once daily for 21 days relative to control. In kind it is functional. The settings on record: HCT-116, ip, 504 h, time 21 day, read-out: TGI.
The nature of data set [15]: Toxicity in BALB/C nude mouse xenografted with HCT116 cells assessed as effect on body weight at 12.5 to 25 mg/kg, ip once daily for 21 days. The following applies: in vivo, 504 h, dose 12.5-25 mg/kg, time 21 day. The format is organism-based.

Activity calls are given as the source filed them. No cut-off for these calls is given here.

Chain of Cyclin-dependent kinase 7/ cyclin H (P51946 whole entry): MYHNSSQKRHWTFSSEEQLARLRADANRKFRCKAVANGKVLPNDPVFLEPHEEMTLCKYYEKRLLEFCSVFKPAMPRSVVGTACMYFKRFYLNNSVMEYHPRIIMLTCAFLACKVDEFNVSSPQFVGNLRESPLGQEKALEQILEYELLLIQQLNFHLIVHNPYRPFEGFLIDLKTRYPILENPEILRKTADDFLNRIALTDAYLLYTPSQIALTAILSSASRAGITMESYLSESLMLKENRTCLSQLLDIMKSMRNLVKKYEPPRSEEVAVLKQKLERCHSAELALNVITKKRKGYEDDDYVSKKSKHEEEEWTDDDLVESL
Chain of Cyclin-dependent kinase 7/ cyclin H (P50613 whole entry): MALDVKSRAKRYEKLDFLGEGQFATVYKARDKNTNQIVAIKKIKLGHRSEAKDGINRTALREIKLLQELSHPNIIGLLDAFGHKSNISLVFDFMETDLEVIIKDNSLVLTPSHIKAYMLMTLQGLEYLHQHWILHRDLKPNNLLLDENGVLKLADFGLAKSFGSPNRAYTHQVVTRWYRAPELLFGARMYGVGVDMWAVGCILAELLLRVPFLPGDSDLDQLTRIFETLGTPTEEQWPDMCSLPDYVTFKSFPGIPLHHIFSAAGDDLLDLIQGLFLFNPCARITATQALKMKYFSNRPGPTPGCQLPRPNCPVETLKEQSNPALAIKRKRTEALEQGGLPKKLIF
Chain of CDK6/cyclin D3 (P30281 whole entry): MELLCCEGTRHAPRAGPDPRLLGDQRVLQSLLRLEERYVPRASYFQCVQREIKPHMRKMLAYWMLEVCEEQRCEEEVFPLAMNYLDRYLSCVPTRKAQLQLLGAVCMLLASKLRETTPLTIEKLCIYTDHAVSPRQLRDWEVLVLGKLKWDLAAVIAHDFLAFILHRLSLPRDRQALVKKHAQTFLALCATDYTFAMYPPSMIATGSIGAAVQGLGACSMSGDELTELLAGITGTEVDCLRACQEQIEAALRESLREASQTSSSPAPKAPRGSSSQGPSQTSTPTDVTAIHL
Chain of CDK6/cyclin D3 (Q00534 whole entry): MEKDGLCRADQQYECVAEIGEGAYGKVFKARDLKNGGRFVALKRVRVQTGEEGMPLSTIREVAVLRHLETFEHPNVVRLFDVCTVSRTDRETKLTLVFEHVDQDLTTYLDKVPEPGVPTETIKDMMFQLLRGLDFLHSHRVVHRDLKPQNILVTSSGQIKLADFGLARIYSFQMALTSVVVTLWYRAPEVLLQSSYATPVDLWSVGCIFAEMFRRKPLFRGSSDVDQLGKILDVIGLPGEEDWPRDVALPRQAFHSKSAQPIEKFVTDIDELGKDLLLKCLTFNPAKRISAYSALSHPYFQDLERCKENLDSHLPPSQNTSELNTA
Description for SMMC-7721: Antiproliferative activity against human SMMC7721 cells assessed as inhibition of cell growth incubated for 72 hrs by CCK-8 assay

As usually defined, the IC50 is the concentration at which inhibition is half-maximal. What is called MRT inf is the average time that molecules of a dose stay in the body. The Tmax is the time from dosing to the highest level. `Nc1ccccc1NC(=O)Cc1ccc(NC(=O)c2n[nH]cc2NC(=O)c2c(Cl)cccc2Cl)cc1`: the IC50 is 5220 nM in the data set on SMMC-7721; over 1000 nM at CDK6/cyclin D3; over 1000 nM on Histone deacetylase 8; 3150 nM in the data set on HeLa [1]; 1450 nM in the data set with HCT-116 [4]; over 1000 nM in data set [8]. Besides, the outcome in the data set on HeLa [2], with A-375 [3], with NCI-H460 [11] and with HCT-116 [12] was Active. For the same compound, the inhibition of growth at 8 µM with NCI-H460 [5] is 67.4%. The MRT inf in [6] was 2.36 h. Moreover, the Tmax in data set [7] came to 1 h. Further, the inhibition result in [9] is “Active”. Besides, the Activity in the data set with A-375 [10] is listed as 73.08%.
As to `Nc1ccccc1NC(=O)c1ccc(CNC(=O)c2n[nH]cc2NC(=O)c2c(Cl)cccc2Cl)cc1`, the IC50 was 7760 nM in the data set on SMMC-7721; over 1000 nM on CDK6/cyclin D3; over 1000 nM at Histone deacetylase 8; 1830 nM in the data set with HeLa [1]; 710 nM in the data set with HCT-116 [4]; over 1000 nM in data set [8]. The inhibition in vivo at 12.5 mg/kg in the data set on HCT-116 [13] was 37%. The inhibition in vivo at 25 mg/kg in the data set on HCT-116 [14] worked out at 51%. Also, the result in the data set with HeLa [2], with A-375 [3], in the data set on NCI-H460 [11] and with HCT-116 [12] was Active. Moreover, in the data set with NCI-H460 [5], the inhibition of growth at 8 µM turned out to be 78.3%. The same compound displayed an MRT inf in data set [6] of 3.31 h. In addition, the Tmax in data set [7] was 2 h. Further, in data set [9], the inhibition result is “Active”. Also, the Activity is given as 97.22% with A-375 [10] and “Non-Toxic” in data set [15].
